Publication PMC6522524 (Nature Communications, 2019)
Where “and” joins values, the source holds several entries; their conditions need not be identical. Identical values can stand only once. Like-named read-outs stand apart in the source and are kept apart here.

Assays:
[1] = target: HBV core protein (pCDNA3-Core, Y118 wild-type) in Huh-7 cells (Hepatitis B virus genotype C, UniProt P0C6H6); assay: cell-based; assay type: cell-based; conditions: for activity at 0.1 µM: Huh-7, Y118, 0.1 μM; for activity at 0.5 µM: Huh-7, Y118, 0.5 μM; for activity at 1 µM: Huh-7, Y118, 1 μM; for activity at 5 µM: Huh-7, Y118, 5 μM; for activity at 10 µM: Huh-7, Y118, 10 μM; for HBV capsid assembly inhibitory activity in vivo (Fig. 3d): Huh-7, pCDNA3-Core
Chain of HBV core protein (pCDNA3-Core, Y118 wild-type) in Huh-7 cells (P0C6H6 whole entry, the tested form may be a part): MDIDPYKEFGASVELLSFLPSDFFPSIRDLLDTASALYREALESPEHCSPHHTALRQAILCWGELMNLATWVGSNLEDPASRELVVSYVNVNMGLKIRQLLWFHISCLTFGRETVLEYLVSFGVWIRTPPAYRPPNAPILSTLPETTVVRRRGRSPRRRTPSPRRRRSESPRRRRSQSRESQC

[2] = target: T1, Cp149 (truncated HBV core protein) (Hepatitis B virus genotype D subtype ayw, UniProt P03146); assay: biochemical; conditions: for HBV capsid assembly inhibitory activity in vitro (Supplementary Fig. 8): Cp149; for Relative intensity, anti core-native gel, individual samples: Sample1-2
T1 construct: Cp149 (amino acids 1–149) is a truncated form of the HBV core protein; made in house; host or cells: Escherichia coli
T1 sequence (P03146 1-149): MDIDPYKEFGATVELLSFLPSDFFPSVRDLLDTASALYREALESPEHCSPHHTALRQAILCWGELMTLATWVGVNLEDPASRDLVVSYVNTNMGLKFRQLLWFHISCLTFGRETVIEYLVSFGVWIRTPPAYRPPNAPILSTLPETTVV

[3] = test system: total HBV core protein in Huh-7 cells; assay type: cell-based, Hepatitis B virus; conditions: for total core protein: treatment time increased; for Relative Core mRNA level(Folds), individual samples: Sample1-3
Method: the indicated times. The cells were lysed and assembled HBV core particles were isolated by sucrose step-gradient ultracentrifugation, resolved on 1 % agarose gels, and subjected to immunoblot analysis with anti-HBV core antibody. Total intracellular HBV core protein was also determined by immunoblot analysis in the cell lysates. Core mRNA levels were measured by quantitative RT-PCR. The data

[4] = Sample1-3, read-out: Relative intensity (Folds), intracellular capsid, individual samples
[5] = read-out: Relative intensity (Folds), intracellular capsid, AVERAGE
[6] = Y118, 0.1 μM, Sample1-3, 0.1 µM
[7] = Y118, 0.5 μM, Sample1-3, 0.5 µM

## Cc1cc(C2CCCCC2)[nH]c(=O)c1 [Compound 2, 6-Cyclohexyl-4-methyl pyridin-2(1H)-one]
[1]; [4]
  activity at 0.1 µM: 94%
  activity at 0.5 µM: 96.4%
  activity at 1 µM: 90.2%
  activity at 5 µM: 85.6%
  activity at 10 µM: 87.2%
[1]; [5]
  activity at 0.1 µM: 96.2%
  activity at 0.5 µM: 98.6%
  activity at 1 µM: 101%
  activity at 5 µM: 95.8%
  activity at 10 µM: 99.5%
[1]
  HBV capsid assembly inhibitory activity in vivo (Fig. 3d): blocked its HBV capsid assembly inhibitory activity
[1]; [6]
  Relative intensity (Folds), intracellular capsid, individual samples: 1.008 Folds and 0.9391 Folds
[1]; [7]
  Relative intensity (Folds), intracellular capsid, individual samples: 1.032 Folds and 0.9631 Folds
[1]; Y118, 1 μM, Sample1-3, 1 µM
  Relative intensity (Folds), intracellular capsid, individual samples: 1.06 Folds and 1.081 Folds
[1]; Y118, 5 μM, Sample1-3, 5 µM
  Relative intensity (Folds), intracellular capsid, individual samples: 1.004 Folds and 1.015 Folds
[1]; Y118, 10 μM, Sample1-3, 10 µM
  Relative intensity (Folds), intracellular capsid, individual samples: 1.04 Folds and 1.071 Folds
[2]
  HBV capsid assembly inhibitory activity in vitro (Supplementary Fig. 8): blocked its HBV capsid assembly inhibitory activity
[2]; Drug Concentration 0.1 μM
  Relative intensity, anti core-native gel, AVERAGE: 0.9832
  Relative intensity, anti core-native gel, individual samples: 0.9055 and 1.061
[2]; Drug Concentration 0.2 μM
  Relative intensity, anti core-native gel, AVERAGE: 1.01
  Relative intensity, anti core-native gel, individual samples: 0.8978 and 1.1231
[2]; Drug Concentration 0.5 μM
  Relative intensity, anti core-native gel, AVERAGE: 0.9545
  Relative intensity, anti core-native gel, individual samples: 0.9595 and 0.9494
[2]; Drug Concentration 1 μM
  Relative intensity, anti core-native gel, AVERAGE: 0.9058
  Relative intensity, anti core-native gel, individual samples: 0.865 and 0.9466
[2]; Drug Concentration 2 μM
  Relative intensity, anti core-native gel, AVERAGE: 0.9815
  Relative intensity, anti core-native gel, individual samples: 0.9391 and 1.024
[2]; Drug Concentration 5 μM
  Relative intensity, anti core-native gel, AVERAGE: 0.9702
  Relative intensity, anti core-native gel, individual samples: 0.8581 and 1.082
[2]; Drug Concentration 10 μM
  Relative intensity, anti core-native gel, AVERAGE: 0.8707
  Relative intensity, anti core-native gel, individual samples: 0.8904 and 0.851

## Bay41–4109
[3]
  total core protein: decreased

## CC1(CC(=O)O)CC(C2CCCCC2)=NO1 (racemic) [(RS)-2-(3-cyclohexyl-5-methyl-4,5-dihydroisoxazol-5-yl)acetic Acid]
[2]; Drug Concentration 0.1 μM
  Relative intensity, anti core-native gel, AVERAGE: 0.9301
  Relative intensity, anti core-native gel, individual samples: 1.019 and 0.8411
[2]; Drug Concentration 0.2 μM
  Relative intensity, anti core-native gel, AVERAGE: 1.003
  Relative intensity, anti core-native gel, individual samples: 1.033 and 0.9731
[2]; Drug Concentration 0.5 μM
  Relative intensity, anti core-native gel, AVERAGE: 0.9877
  Relative intensity, anti core-native gel, individual samples: 0.9703 and 1.005
[2]; Drug Concentration 1 μM
  Relative intensity, anti core-native gel, AVERAGE: 0.9712
  Relative intensity, anti core-native gel, individual samples: 1.074 and 0.8679
[2]; Drug Concentration 2 μM
  Relative intensity, anti core-native gel, AVERAGE: 0.9867
  Relative intensity, anti core-native gel, individual samples: 1.072 and 0.9014
[2]; Drug Concentration 5 μM
  Relative intensity, anti core-native gel, AVERAGE: 0.9809
  Relative intensity, anti core-native gel, individual samples: 1.098 and 0.8634
[2]; Drug Concentration 10 μM
  Relative intensity, anti core-native gel, AVERAGE: 1.051
  Relative intensity, anti core-native gel, individual samples: 1.175 and 0.9277

## Cc1cc(C2CCCCC2)oc(=O)c1 [Compound 3, 6-Cyclohexyl-4-methyl-2–pyrone]
[1]; [4]
  activity at 0.1 µM: 109%
  activity at 1 µM: 103%
  activity at 5 µM: 110%
[1]; [5]
  activity at 0.1 µM: 119%
  activity at 0.5 µM: 113%
  activity at 1 µM: 106%
  activity at 5 µM: 115%
  activity at 10 µM: 115%
[1]
  HBV capsid assembly inhibitory activity in vivo (Fig. 3d): blocked its HBV capsid assembly inhibitory activity
[1]; [6]
  Relative intensity (Folds), intracellular capsid, individual samples: 1.2405 Folds and 1.2516 Folds
[1]; [7]
  Relative intensity (Folds), intracellular capsid, individual samples: 0.9808 Folds and 1.196 Folds and 1.214 Folds
[1]; Y118, 1 μM, Sample1-3, 1 µM
  Relative intensity (Folds), intracellular capsid, individual samples: 1.107 Folds and 1.042 Folds
[1]; Y118, 5 μM, Sample1-3, 5 µM
  Relative intensity (Folds), intracellular capsid, individual samples: 1.192 Folds and 1.143 Folds
[1]; Y118, 10 μM, Sample1-3, 10 µM
  Relative intensity (Folds), intracellular capsid, individual samples: 0.9807 Folds and 1.199 Folds and 1.28 Folds
[2]
  HBV capsid assembly inhibitory activity in vitro (Supplementary Fig. 8): blocked its HBV capsid assembly inhibitory activity
[2]; Drug Concentration 0.1 μM
  Relative intensity, anti core-native gel, AVERAGE: 0.9537
[2]; Drug Concentration 0.1 μM, listed as 6-Cycloxexyl-4-methyl-2-pyrone
  Relative intensity, anti core-native gel, individual samples: 0.8748 and 1.033
[2]; Drug Concentration 0.2 μM
  Relative intensity, anti core-native gel, AVERAGE: 0.9345
[2]; Drug Concentration 0.2 μM, listed as 6-Cycloxexyl-4-methyl-2-pyrone
  Relative intensity, anti core-native gel, individual samples: 0.9048 and 0.9643
[2]; Drug Concentration 0.5 μM
  Relative intensity, anti core-native gel, AVERAGE: 0.8949
[2]; Drug Concentration 0.5 μM, listed as 6-Cycloxexyl-4-methyl-2-pyrone
  Relative intensity, anti core-native gel, individual samples: 0.8127 and 0.9771
[2]; Drug Concentration 1 μM
  Relative intensity, anti core-native gel, AVERAGE: 0.9182
[2]; Drug Concentration 1 μM, listed as 6-Cycloxexyl-4-methyl-2-pyrone
  Relative intensity, anti core-native gel, individual samples: 0.8468 and 0.9896
[2]; Drug Concentration 2 μM
  Relative intensity, anti core-native gel, AVERAGE: 0.8055
[2]; Drug Concentration 2 μM, listed as 6-Cycloxexyl-4-methyl-2-pyrone
  Relative intensity, anti core-native gel, individual samples: 0.798 and 0.8131
[2]; Drug Concentration 5 μM
  Relative intensity, anti core-native gel, AVERAGE: 0.9044
[2]; Drug Concentration 5 μM, listed as 6-Cycloxexyl-4-methyl-2-pyrone
  Relative intensity, anti core-native gel, individual samples: 0.8531 and 0.9558
[2]; Drug Concentration 10 μM
  Relative intensity, anti core-native gel, AVERAGE: 1.014
[2]; Drug Concentration 10 μM, listed as 6-Cycloxexyl-4-methyl-2-pyrone
  Relative intensity, anti core-native gel, individual samples: 0.9919 and 1.036

## GLS-4
[2]
  Relative intensity (Folds), in vitro core assembly, individual samples: 1.0339 Folds and 1.019 Folds and 0.9819 Folds and 1.079 Folds and 1.058 Folds and 1.102 Folds and 0.3491 Folds and 0.342 Folds and 0.3462 Folds and 0.1267 Folds and 0.1171 Folds and 0.123 Folds and 0.01326 Folds and 0.01176 Folds and 0.01165 Folds and 0 Folds (6×)
[3]; 1.5day, 0.1 μM
  Relative Core mRNA level(Folds), AVERAGE: 0.9973 Folds
  Relative Core mRNA level(Folds), individual samples: 1.007 Folds and 1.003 Folds and 0.9824 Folds
[3]; 1.5day, 0.5 μM
  Relative Core mRNA level(Folds), AVERAGE: 1.0017 Folds
  Relative Core mRNA level(Folds), individual samples: 0.9742 Folds and 0.987 Folds and 1.044 Folds
[3]; 1.5day, 1 μM
  Relative Core mRNA level(Folds), AVERAGE: 0.9997 Folds
  Relative Core mRNA level(Folds), individual samples: 1.008 Folds and 0.9861 Folds and 1.005 Folds
[3]; 1.5day, 5 μM
  Relative Core mRNA level(Folds), AVERAGE: 1.008 Folds
  Relative Core mRNA level(Folds), individual samples: 1.002 Folds and 0.9963 Folds and 1.025 Folds
[3]; 1.5day, 10 μM
  Relative Core mRNA level(Folds), AVERAGE: 0.9997 Folds
  Relative Core mRNA level(Folds), individual samples: 0.9972 Folds and 0.9916 Folds and 1.01 Folds
[3]; 2.5day, 0.1 μM
  Relative Core mRNA level(Folds), AVERAGE: 0.9923 Folds
  Relative Core mRNA level(Folds), individual samples: 1.007 Folds and 0.9944 Folds and 0.976 Folds
[3]; 2.5day, 0.5 μM
  Relative Core mRNA level(Folds), AVERAGE: 0.9898 Folds
  Relative Core mRNA level(Folds), individual samples: 1 Folds and 0.9926 Folds and 0.9769 Folds
[3]; 2.5day, 1 μM
  Relative Core mRNA level(Folds), AVERAGE: 0.9998 Folds
  Relative Core mRNA level(Folds), individual samples: 1.0179 Folds and 1.005 Folds and 0.9769 Folds
[3]; 2.5day, 5 μM
  Relative Core mRNA level(Folds), AVERAGE: 0.9873 Folds
  Relative Core mRNA level(Folds), individual samples: 0.9861 Folds and 0.9889 Folds and 0.987 Folds
[3]; 2.5day, 10 μM
  Relative Core mRNA level(Folds), AVERAGE: 1.003 Folds
  Relative Core mRNA level(Folds), individual samples: 1.007 Folds and 1.001 Folds
[3]; 4.5day, 0.1 μM
  Relative Core mRNA level(Folds), AVERAGE: 0.9929 Folds
  Relative Core mRNA level(Folds), individual samples: 1.007 Folds and 0.9944 Folds and 0.9778 Folds
[3]; 4.5day, 0.5 μM
  Relative Core mRNA level(Folds), AVERAGE: 0.9886 Folds
  Relative Core mRNA level(Folds), individual samples: 1 Folds and 0.9889 Folds and 0.9769 Folds
[3]; 4.5day, 1 μM
  Relative Core mRNA level(Folds), AVERAGE: 0.9986 Folds
  Relative Core mRNA level(Folds), individual samples: 1.0179 Folds and 1.001 Folds and 0.9769 Folds
[3]; 4.5day, 5 μM
  Relative Core mRNA level(Folds), AVERAGE: 0.9904 Folds
  Relative Core mRNA level(Folds), individual samples: 0.9861 Folds and 0.9981 Folds and 0.987 Folds
[3]; 4.5day, 10 μM
  Relative Core mRNA level(Folds), AVERAGE: 0.9982 Folds
  Relative Core mRNA level(Folds), individual samples: 1.007 Folds and 0.9916 Folds and 0.9963 Folds
[3]
  total core protein: decreased
